The values below come from patent publication US20240382470A1, “Irak Inhibitor for Treating Cytokine Release-Related Conditions Associated With Infection by a Respiratory Virus” (Rigel Pharmaceuticals, Inc., priority 2021, published 2024).

Where a name gives a salt, the structure may show the parent alone.

In general, IC50 refers to the concentration that gives 50% inhibition.

For data set [1], the system named is Dendritic cells + T cells + CD3/CD28 beads. The experiment in a line: CRS assay, IL2 ELISA of supernatant. It is filed as cell-based. The following applies: Homo sapiens; 1 hour compound pre-incubation, overnight incubation; IL-2 only produced by activated T cells.
Data set [2] has the same test system. Description: CRS assay, IL6 ELISA of supernatant. It counts as cell-based. The following applies: Homo sapiens, read-out: Dendritic cells + T cells + CD3/CD28 beads IL6* ELISA EC50 (μM). On the technique in general: An ELISA detects its analyte on a solid surface through an enzyme-linked reagent.
Data set [3] deals with Shp1fl/fl RosaERT2-Cre/+ mouse model of lung inflammation. The following applies: throughout the 21 days, control chow or Compound VII-49 chow.
Experimental: ARDS-like disease model is produced by crossing Shp1^fl/fl to Shp1^fl/flRosa^ERT2-CRE/+ mice. Rosa^ERT2-CRE/+ is expressed under a Tamoxifen inducible promoter. When Tamoxifen is administered to Shp1^fl/flRosa^ERT2-CRE/+ mice CRE recombinase is activated resulting in deletion of Shp1 in hematopoietic cells.
Tamoxifen is administered at day 1 for a total of 4 days wherein Tamoxifen is administered twice a day at 200 mg/kg/bid (400 mg/kg/day). […] Mice were euthanized on day 21.
In an effort to generate an ARDS-like disease model, Shp1^fl/fl Rosa^ERT2-CRE/+ obtained from Jackson Laboratories were crossed to Shp1^fl/fl mice. Rosa^ERT2-CRE/+ is under the control of a Tamoxifen inducible promoter. Shp1^fl/fl Rosa^ERT2-CRE/+ mice were administered Tamoxifen to activate CRE recombinase resulting in deletion of Shp1 in all cells that normally express Shp1 (FIG. 1).
Mice were euthanized on day 21.
Another data set addresses human ACE2 (Homo sapiens, UniProt Q9BYF1). Conditions: cited from earlier work.

Chain of human ACE2 (Q9BYF1 18-805): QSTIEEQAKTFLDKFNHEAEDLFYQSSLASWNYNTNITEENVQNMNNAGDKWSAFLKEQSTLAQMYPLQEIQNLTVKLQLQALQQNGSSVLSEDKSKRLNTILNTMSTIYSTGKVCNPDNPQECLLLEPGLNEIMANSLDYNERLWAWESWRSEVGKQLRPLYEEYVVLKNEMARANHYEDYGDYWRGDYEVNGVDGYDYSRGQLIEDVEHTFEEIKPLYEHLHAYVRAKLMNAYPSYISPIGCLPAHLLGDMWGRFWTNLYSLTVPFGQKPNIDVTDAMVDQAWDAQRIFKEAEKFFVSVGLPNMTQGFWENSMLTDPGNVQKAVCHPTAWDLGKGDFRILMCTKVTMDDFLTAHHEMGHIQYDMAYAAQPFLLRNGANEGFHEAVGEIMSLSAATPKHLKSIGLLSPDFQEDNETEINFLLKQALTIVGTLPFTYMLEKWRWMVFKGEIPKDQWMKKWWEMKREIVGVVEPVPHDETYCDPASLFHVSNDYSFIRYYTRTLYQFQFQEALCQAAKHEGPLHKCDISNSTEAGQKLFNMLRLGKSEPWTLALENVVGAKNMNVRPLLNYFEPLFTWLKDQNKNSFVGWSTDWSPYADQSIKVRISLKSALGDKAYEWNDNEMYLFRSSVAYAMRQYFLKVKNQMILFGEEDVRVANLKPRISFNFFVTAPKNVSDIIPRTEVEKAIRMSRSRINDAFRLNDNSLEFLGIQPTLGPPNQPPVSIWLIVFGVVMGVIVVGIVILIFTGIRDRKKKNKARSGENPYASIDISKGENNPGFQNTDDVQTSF

On to `CCO[C@H]1CC[C@H](n2cc(NC(=O)c3csc(-c4cn[nH]c4)n3)c(-c3nc(F)ccc3F)n2)CC1` [VI-176, N-(3-(3,6-difluoropyridin-2-yl)-1-((1r,4r)-4-ethoxycyclohexyl)-1H-pyrazol-4-yl)-2-(1H-pyrazol-4-yl)thiazole-4-carboxamide], for which the values for the EC50 in data set [1] and in data set [2] were 6900 nM and 0.195 µM, respectively.
With `CCO[C@H]1CC[C@H](n2cc(NC(=O)c3csc(-c4cnn(C(C)OP(=O)(O)O)c4)n3)c(-c3nc(F)ccc3F)n2)CC1` (stereo partly shown) [VII-49, 1-(4-(4-((3-(3,6-difluoropyridin-2-yl)-1-((1r,4r)-4-ethoxycyclohexyl)-1H-pyrazol-4-yl)carbamoyl)thiazol-2-yl)-1H-pyrazol-1-yl)ethyl dihydrogen phosphate tris salt], the mortality entry in data set [3] was “no mice died”.
Consider `N[C@@H](CCN[C@@H](CCN1CC[C@H]1C(=O)O)C(=O)O)C(=O)O` [nicotianamine], for which the IC50 on human ACE2 is 84 nM.
